Results taken from patent publication US9650395B2, “Antibacterial compounds and methods for use” (PTC Therapeutics, Inc., priority 2011, dated 2017).
Where a name gives a salt, the structure may show the parent alone. Read-outs that look alike come from different tables or passages of the source.

Assays:
[1] = tested on: Pseudomonas aeruginosa (P. aeruginosa) 27853; assay: Antibacterial activity, MIC, P. aeruginosa 27853; assay type: cell-based; conditions: Pseudomonas aeruginosa, P. aeruginosa 27853; read-out: MIC 27853
Text: (§1) The antibacterial activity from a microbroth dilution method may be presented as the minimum inhibitory concentration (MIC in […]). The MIC value is the lowest concentration of a drug which prevents macroscopically visible bacterial growth under test conditions.
Antibacterial activity of test compounds against the Gram-negative bacterium Pseudomonas aeruginosa (P. aeruginosa) 27853 is shown in Table 5.

[2] = tested on: Haemophilus influenzae (H. influenzae) 49247; assay: Antibacterial activity, MIC, H. influenzae 49247; assay type: cell-based; conditions: Haemophilus influenzae; H. influenzae 49247; read-out: MIC 49247
Outline: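 A microbroth dilution method gave the minimum inhibitory concentration for each compound against H. influenzae 49247, a Gram-negative bacterium. MIC means the smallest concentration of drug at which no macroscopically visible bacterial growth appears under the conditions of the test.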

[3] = tested on: E. coli ELZ4000 (MDR clinical isolate); assay: Antibacterial activity, MIC, MDR E. coli ELZ4000; assay type: cell-based, Escherichia coli; conditions: Escherichia coli; E. coli ELZ4000, MDR clinical isolate; read-out: MIC ELZ4000
[4] = tested on: quinolone resistant E. coli LZ3111; assay: Antibacterial activity, MIC, quinolone resistant E. coli LZ3111; assay type: cell-based, Escherichia coli; conditions: Escherichia coli, read-out: MIC, LZ3111
Text: as §1
Mutations in these regions are known to confer a high level resistance to the quinolone class of antibiotics.

[5] = tested on: control Gram-negative E. coli 25922 strain; assay: Antibacterial activity, microbroth dilution MIC, E. coli 25922; assay type: cell-based, Escherichia coli; conditions: Escherichia coli; E. coli 25922, microbroth dilution; read-out: MIC, 25922
[6] = tested on: Gram-positive Staphylococcus aureus (S. aureus) 29213; assay: Antibacterial activity, microbroth dilution MIC, S. aureus 29213; assay type: cell-based; conditions: Staphylococcus aureus; S. aureus 29213, microbroth dilution; read-out: MIC, 29213
[7] = tested on: E. coli ELZ4251 (MDR clinical isolate); assay: Antibacterial activity, MIC, MDR E. coli ELZ4251; assay type: cell-based, Escherichia coli; conditions: Escherichia coli, E. coli ELZ4251, MDR clinical isolate; read-out: MIC ELZ4251
[8] = tested on: Moraxella catarrhalis (M. catarrhalis) 25238; assay: Antibacterial activity, MIC, M. catarrhalis 25238; assay type: cell-based; conditions: Moraxella catarrhalis, M. catarrhalis 25238; read-out: MIC 25238
[9] = tested on: resistant A. baumannii MXX2240 (MDR clinical isolate); assay: Antibacterial activity, MIC, resistant A. baumannii MXX2240; assay type: cell-based, Acinetobacter baumannii; conditions: Acinetobacter baumannii, resistant A. baumannii MMX2240, MDR clinical isolate; read-out: MIC MMX2240
[10] = tested on: Klebsiella pneumoniae (K. pneumoniae) 35657; assay: Antibacterial activity, MIC, K. pneumoniae 35657; assay type: cell-based; conditions: Klebsiella pneumoniae
[11] = tested on: Acinetobacter baumannii (A. baumannii) BAA747; assay: Antibacterial activity, MIC, A. baumannii BAA747; assay type: cell-based; conditions: Acinetobacter baumannii; A. baumannii BAA747; read-out: MIC BAA747
[12] = tested on: super sensitive Gram-negative Escherichia coli (E. coli) BAS849; assay: Antibacterial activity, microbroth dilution MIC, E. coli BAS849; assay type: cell-based; conditions: Escherichia coli, read-out: MIC, BAS849
[13] = tested on: Neisseria meningitidis (N. meningitidis) 13090; assay: Antibacterial activity, MIC, N. meningitidis 13090; assay type: cell-based; conditions: Neisseria meningitidis; N. meningitidis 13090; read-out: MIC 13090
[14] = tested on: resistant K. pneumoniae MXX1232 (MDR clinical isolate); assay: Antibacterial activity, MIC, resistant K. pneumoniae MXX1232; assay type: cell-based, Klebsiella pneumoniae; conditions: Klebsiella pneumoniae; resistant K. pneumoniae MMX1232, MDR clinical isolate; read-out: MIC MMX1232
[15] = E. coli BAS849, microbroth dilution

Compound: CCc1c(-c2ccc(N3C[C@H]4CCC[C@@H](N(C)C)[C@H]4C3)cc2)[nH]c(=O)c(C(=O)O)c1O.Cl [Cpd 261, 6-{4-[(3aR,4R,7aS)-4-(dimethylamino)octahydro-2H-isoindol-2-yl]phenyl}-5-ethyl-4-hydroxy-2-oxo-1,2-dihydropyridine-3-carboxylic acid hydrochloride]
- MIC [1]: 12.5 to 150 µg/mL
- MIC [2]: 12.5 to 150 µg/mL
- MIC [3]: 12.5 to 150 µg/mL
- MIC [4]: 1 to 3.5 µg/mL
- MIC [5]: 3.5 to 12.5 µg/mL
- MIC [6]: 3.5 to 12.5 µg/mL
- MIC [7]: 3.5 to 12.5 µg/mL
- MIC [8]: 3.5 to 12.5 µg/mL
- MIC [9]: 12.5 to 150 µg/mL
- MIC [10]: 12.5 to 150 µg/mL
- MIC [11]: 12.5 to 150 µg/mL
- MIC [12, 15]: < 1 µg/mL
- MIC [13]: < 1 µg/mL
- MIC [14]: 12.5 to 150 µg/mL

Compound: CCc1c(-c2ccc(N3C[C@H]4CCC[C@@H](N)[C@H]4C3)cc2)[nH]c(=O)c(C(=O)O)c1O.O=C(O)C(F)(F)F [Cpd 262, 6-{4-[(3aR,4R,7aS)-4-aminooctahydro-2H-isoindol-2-yl]phenyl}-5-ethyl-4-hydroxy-2-oxo-1,2-dihydropyridine-3-carboxylic acid trifluoroacetate]
- MIC [1]: 12.5 to 150 µg/mL
- MIC [2]: 3.5 to 12.5 µg/mL
- MIC [3]: 1 to 3.5 µg/mL
- MIC [4]: < 1 µg/mL
- MIC [5]: 1 to 3.5 µg/mL
- MIC [6]: 3.5 to 12.5 µg/mL
- MIC [7]: 1 to 3.5 µg/mL
- MIC [8]: 3.5 to 12.5 µg/mL
- MIC [9]: 1 to 3.5 µg/mL
- MIC [10]: 1 to 3.5 µg/mL
- MIC [11]: 3.5 to 12.5 µg/mL
- MIC [12]: < 1 µg/mL
- MIC [13]: 1 to 3.5 µg/mL
- MIC [14]: 12.5 to 150 µg/mL

Compound: CCc1c(-c2ccc(N3C[C@H]4CC[C@@H](N(C)C)[C@H]4C3)cc2)[nH]c(=O)c(C(=O)O)c1O.Cl [Cpd 263, 6-{4-[(3aR,4R,6aS)-4-(dimethylamino)hexahydrocyclopenta[c]pyrrol-2(1H)-yl]phenyl}-5-ethyl-4-hydroxy-2-oxo-1,2-dihydropyridine-3-carboxylic acid hydrochloride]
- MIC [1]: 12.5 to 150 µg/mL
- MIC [2]: 3.5 to 12.5 µg/mL
- MIC [3]: 12.5 to 150 µg/mL
- MIC [4]: 3.5 to 12.5 µg/mL
- MIC [5]: 1 to 3.5 µg/mL
- MIC [6]: 12.5 to 150 µg/mL
- MIC [7]: 12.5 to 150 µg/mL
- MIC [8]: 1 to 3.5 µg/mL
- MIC [9]: 12.5 to 150 µg/mL
- MIC [10]: 3.5 to 12.5 µg/mL
- MIC [11]: 3.5 to 12.5 µg/mL
- MIC [12, 15]: < 1 µg/mL
- MIC [13]: 1 to 3.5 µg/mL
- MIC [14]: 12.5 to 150 µg/mL

Compound: CCc1c(-c2ccc(N3C[C@H]4CC[C@@H](N)[C@H]4C3)cc2)[nH]c(=O)c(C(=O)O)c1O.Cl [Cpd 264, 6-{4-[(3aR,4R,6aS)-4-aminohexahydrocyclopenta[c]pyrrol-2(1H)-yl]phenyl}-5-ethyl-4-hydroxy-2-oxo-1,2-dihydropyridine-3-carboxylic acid hydrochloride]
- MIC [1]: 12.5 to 150 µg/mL
- MIC [2]: 3.5 to 12.5 µg/mL
- MIC [3]: 12.5 to 150 µg/mL
- MIC [4]: 1 to 3.5 µg/mL
- MIC [5]: 1 to 3.5 µg/mL
- MIC [6]: 3.5 to 12.5 µg/mL
- MIC [7]: 3.5 to 12.5 µg/mL
- MIC [8]: 1 to 3.5 µg/mL
- MIC [9]: 12.5 to 150 µg/mL
- MIC [10]: 3.5 to 12.5 µg/mL
- MIC [11]: 12.5 to 150 µg/mL
- MIC [12, 15]: < 1 µg/mL
- MIC [13]: < 1 µg/mL
- MIC [14]: 12.5 to 150 µg/mL

Compound: CCc1c(-c2ccc(N3C[C@H]4CC[C@H](N)[C@H]4C3)cc2)[nH]c(=O)c(C(=O)O)c1O.O=C(O)C(F)(F)F [Cpd 265, 6-{4-[(3aR,4S,6aS)-4-aminohexahydrocyclopenta[c]pyrrol-2(1H)-yl]phenyl}-5-ethyl-4-hydroxy-2-oxo-1,2-dihydropyridine-3-carboxylic acid trifluoroacetate]
- MIC [1]: 12.5 to 150 µg/mL
- MIC [2]: 12.5 to 150 µg/mL
- MIC [3]: 12.5 to 150 µg/mL
- MIC [4]: 3.5 to 12.5 µg/mL
- MIC [5]: 3.5 to 12.5 µg/mL
- MIC [6]: 12.5 to 150 µg/mL
- MIC [7]: 3.5 to 12.5 µg/mL
- MIC [8]: 3.5 to 12.5 µg/mL
- MIC [9]: 12.5 to 150 µg/mL
- MIC [10]: 3.5 to 12.5 µg/mL
- MIC [11]: 12.5 to 150 µg/mL
- MIC [12]: 1 to 3.5 µg/mL
- MIC [13]: 1 to 3.5 µg/mL
- MIC [14]: 12.5 to 150 µg/mL

Compound: CCc1c(-c2ccc(N3C[C@H]4CCC[C@H](NC)[C@H]4C3)cc2)[nH]c(=O)c(C(=O)O)c1O.Cl [Cpd 268, 5-ethyl-4-hydroxy-6-{4-[(3aR,4S,7aS)-4-(methylamino)octahydro-2H-isoindol-2-yl]phenyl}-2-oxo-1,2-dihydropyridine-3-carboxylic acid hydrochloride]
- MIC [1]: 12.5 to 150 µg/mL
- MIC [2]: 12.5 to 150 µg/mL
- MIC [3]: 12.5 to 150 µg/mL
- MIC [4]: 1 to 3.5 µg/mL
- MIC [5]: 3.5 to 12.5 µg/mL
- MIC [6]: 3.5 to 12.5 µg/mL
- MIC [7]: 3.5 to 12.5 µg/mL
- MIC [8]: 3.5 to 12.5 µg/mL
- MIC [9]: 12.5 to 150 µg/mL
- MIC [10]: 12.5 to 150 µg/mL
- MIC [11]: 12.5 to 150 µg/mL
- MIC [12, 15]: 1 to 3.5 µg/mL
- MIC [13]: 3.5 to 12.5 µg/mL
- MIC [14]: 12.5 to 150 µg/mL

Compound: CCc1c(-c2ccc(N3C[C@@H]4[C@H](C3)[C@H]4NC)cc2)[nH]c(=O)c(C(=O)O)c1O [Cpd 270, 5-ethyl-4-hydroxy-6-{4-[(1R,5S,6s)-6-(methylamino)-3-azabicyclo[3.1.0]hex-3-yl]phenyl}-2-oxo-1,2-dihydropyridine-3-carboxylic acid hydrochloride]
- MIC [1]: 1 to 3.5 µg/mL
- MIC [2]: < 1 µg/mL
- MIC [3]: 12.5 to 150 µg/mL
- MIC [4]: 1 to 3.5 µg/mL
- MIC [5]: < 1 µg/mL
- MIC [6]: 3.5 to 12.5 µg/mL
- MIC [7]: 3.5 to 12.5 µg/mL
- MIC [8]: < 1 µg/mL
- MIC [9]: 12.5 to 150 µg/mL
- MIC [10]: < 1 µg/mL
- MIC [11]: < 1 µg/mL
- MIC [12, 15]: < 1 µg/mL
- MIC [13]: < 1 µg/mL
- MIC [14]: 12.5 to 150 µg/mL

Compound: CCc1c(-c2ccc(N3CC4CCCNC4C3)cc2)[nH]c(=O)c(C(=O)O)c1O.Cl (stereo not drawn) [Cpd 272, 5-ethyl-4-hydroxy-6-[4-(octahydro-6H-pyrrolo[3,4-b]pyridin-6-yl)phenyl]-2-oxo-1,2-dihydropyridine-3-carboxylic acid hydrochloride]
- MIC [1]: 3.5 to 12.5 µg/mL
- MIC [2]: < 1 µg/mL
- MIC [3]: 3.5 to 12.5 µg/mL
- MIC [4]: < 1 µg/mL
- MIC [5]: < 1 µg/mL
- MIC [6]: 3.5 to 12.5 µg/mL
- MIC [7]: 1 to 3.5 µg/mL
- MIC [8]: < 1 µg/mL
- MIC [9]: 3.5 to 12.5 µg/mL
- MIC [10]: < 1 µg/mL
- MIC [11]: 1 to 3.5 µg/mL
- MIC [12, 15]: < 1 µg/mL
- MIC [13]: < 1 µg/mL
- MIC [14]: 12.5 to 150 µg/mL

Compound: CCc1c(-c2ccc(N3CCC(N(C)C)C3)cc2)[nH]c(=O)c(C(=O)O)c1O.Cl (stereo not drawn) [Cpd 275, 6-{4-[3-(dimethylamino)pyrrolidin-1-yl]phenyl}-5-ethyl-4-hydroxy-2-oxo-1,2-dihydropyridine-3-carboxylic acid hydrochloride]
- MIC [1]: 3.5 to 12.5 µg/mL
- MIC [2]: < 1 µg/mL
- MIC [3]: 3.5 to 12.5 µg/mL
- MIC [4]: 1 to 3.5 µg/mL
- MIC [5]: < 1 µg/mL
- MIC [6]: 12.5 to 150 µg/mL
- MIC [7]: 1 to 3.5 µg/mL
- MIC [8]: < 1 µg/mL
- MIC [9]: 1 to 3.5 µg/mL
- MIC [10]: 1 to 3.5 µg/mL
- MIC [11]: 1 to 3.5 µg/mL
- MIC [12, 15]: < 1 µg/mL
- MIC [13]: < 1 µg/mL
- MIC [14]: 12.5 to 150 µg/mL
